Results published in PubChem BioAssay AID2060898 (Molecular Pharmacology Branch, DTP, NCI, 2025).
“And” between values parts separate entries of the source, which are not always exact repeats. Equal entries are not always repeated.

Test system: 616215-338-R-J1-PDC complex spheroid viability
Assay: Anticancer human tumor 616215-338-R-J1-PDC patient-derived colon adenocarcinoma cell line growth inhibition [RAS]
Settings: for viability, T/C: stronger effect = lower value
Summary of the method: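 Multi-cell-type spheroids: tumor cells plus HUVEC endothelial cells and mesenchymal stem cells. RAS-pathway inhibitors were combined with targeted agents, each dosed in half-log steps down from clinical Cmax, or from 10 microM when Cmax was unknown.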

[1] = curve of first compound, second compound 0.0316 µM
[2] = curve of first compound, second compound 0.1 µM
[3] = curve of first compound, second compound 0.316 µM
[4] = curve of first compound, second compound 1 µM
[5] = second compound 0.0316 µM, first compound 0.00316 µM
[6] = second compound 0.0316 µM, first compound 0.01 µM
[7] = second compound 0.0316 µM, first compound 0.0316 µM
[8] = second compound 0.0316 µM, first compound 0.1 µM
[9] = second compound 0.0316 µM, first compound 0.316 µM
[10] = second compound 0.0316 µM, first compound 1 µM
[11] = second compound 0.1 µM, first compound 0.00316 µM
[12] = second compound 0.1 µM, first compound 0.01 µM
[13] = second compound 0.1 µM, first compound 0.0316 µM
[14] = second compound 0.1 µM, first compound 0.1 µM
[15] = second compound 0.1 µM, first compound 0.316 µM
[16] = second compound 0.1 µM, first compound 1 µM
[17] = second compound 0.316 µM, first compound 0.00316 µM
[18] = second compound 0.316 µM, first compound 0.01 µM
[19] = second compound 0.316 µM, first compound 0.0316 µM
[20] = second compound 0.316 µM, first compound 0.1 µM
[21] = second compound 0.316 µM, first compound 0.316 µM
[22] = second compound 0.316 µM, first compound 1 µM
[23] = second compound 1 µM, first compound 0.00316 µM
[24] = second compound 1 µM, first compound 0.01 µM
[25] = second compound 1 µM, first compound 0.0316 µM
[26] = second compound 1 µM, first compound 0.1 µM
[27] = second compound 1 µM, first compound 0.316 µM
[28] = second compound 1 µM, first compound 1 µM
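Also: spheroids exposed to agents for seven days before viability readout.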
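For viability, T/C in this document: 100% = DMSO vehicle control viability.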

Compound `O=C(c1ccc(F)c(F)c1Nc1ccc(I)cc1F)N1CC(O)([C@@H]2CCCCN2)C1` + C=CC(=O)N1CCN(c2nc(OCC3CCCN3C)nc3c(F)c(-c4nc(N)cc(C)c4C(F)(F)F)c(Cl)cc23)C(C)C1 has an IC50 (curve of first compound, second compound 0.00316 µM) of 62.1 nM, an IC50 (curve of first compound, second compound 0.01 µM) of 70.7 nM and an IC50 [1] of 72.1 nM. It also gave an IC50 [2] of 89.4 nM, an IC50 [3] of 67.4 nM and an IC50 [4] of 61.3 nM. For the same compound, the viability, T/C (second compound 0.00316 µM, first compound 0.00316 µM) was 114%, the viability, T/C (second compound 0.00316 µM, first compound 0.01 µM) was 112% and the viability, T/C (second compound 0.00316 µM, first compound 0.0316 µM) was 65.3%. For the same compound, the viability, T/C (second compound 0.00316 µM, first compound 0.1 µM) was 38.6%, the viability, T/C (second compound 0.00316 µM, first compound 0.316 µM) was 12.9% and the viability, T/C (second compound 0.00316 µM, first compound 1 µM) was 4.36%. It also gave a viability, T/C (second compound 0.01 µM, first compound 0.00316 µM) of 98.8%, a viability, T/C (second compound 0.01 µM, first compound 0.01 µM) of 108% and a viability, T/C (second compound 0.01 µM, first compound 0.0316 µM) of 81.7%. The viability, T/C (second compound 0.01 µM, first compound 0.1 µM) was 36%, the viability, T/C (second compound 0.01 µM, first compound 0.316 µM) was 13.1% and the viability, T/C (second compound 0.01 µM, first compound 1 µM) was 6.62%. It also gave a viability, T/C [5] of 110%, a viability, T/C [6] of 115% and a viability, T/C [7] of 74.7%. The viability, T/C [8] was 40%, the viability, T/C [9] was 15% and the viability, T/C [10] was 3.89%. It also gave a viability, T/C [11] of 106%, a viability, T/C [12] of 116% and a viability, T/C [13] of 82.5%. For the same compound, the viability, T/C [14] was 47.5%, the viability, T/C [15] was 16.7% and the viability, T/C [16] was 6.51%. The viability, T/C [17] was 100%, the viability, T/C [18] was 105% and the viability, T/C [19] was 80.6%. It also gave a viability, T/C [20] of 33.1%, a viability, T/C [21] of 13.9% and a viability, T/C [22] of 4.52%. The viability, T/C [23] was 102%, the viability, T/C [24] was 101% and the viability, T/C [25] was 72.2%. For the same compound, the viability, T/C [26] was 31.7%, the viability, T/C [27] was 18.8% and the viability, T/C [28] was 5.31%.
`CCN1CCN(Cc2ccc(Nc3ncc(F)c(-c4cc(F)c5nc(C)n(C(C)C)c5c4)n3)nc2)CC1` + C#Cc1c(F)ccc2cc(O)cc(-c3ncc4c(N5CC6CCC(C5)N6)nc(OCC56CCCN5CC(F)C6)nc4c3F)c12 was tested, and the IC50 [1] was over 1000 nM, the IC50 [2] was over 1000 nM and the IC50 [3] was 874 nM. For the same compound, the IC50 [4] was 693 nM, the IC50 (curve of first compound, second compound 3.16 µM) was 175 nM and the IC50 (curve of first compound, second compound 10 µM) was 30.9 nM. It also gave a viability, T/C [5] of 96.4%, a viability, T/C [6] of 117% and a viability, T/C [7] of 120%. For the same compound, the viability, T/C [8] was 108%, the viability, T/C [9] was 131% and the viability, T/C [10] was 53.2%. The viability, T/C [11] was 97.9%, the viability, T/C [12] was 110% and the viability, T/C [13] was 113%. It also gave a viability, T/C [14] of 124%, a viability, T/C [15] of 129% and a viability, T/C [16] of 50.8%. For the same compound, the viability, T/C [17] was 105%, the viability, T/C [18] was 110% and the viability, T/C [19] was 121%. For the same compound, the viability, T/C [20] was 120%, the viability, T/C [21] was 112% and the viability, T/C [22] was 41.7%. It also gave a viability, T/C [23] of 120%, a viability, T/C [24] of 118% and a viability, T/C [25] of 130%. It also gave a viability, T/C [26] of 88%, a viability, T/C [27] of 74.2% and a viability, T/C [28] of 39.7%. The viability, T/C (second compound 3.16 µM, first compound 0.00316 µM) was 90.8%, the viability, T/C (second compound 3.16 µM, first compound 0.01 µM) was 98.1% and the viability, T/C (second compound 3.16 µM, first compound 0.0316 µM) was 70%. For the same compound, the viability, T/C (second compound 3.16 µM, first compound 0.1 µM) was 58.2%, the viability, T/C (second compound 3.16 µM, first compound 0.316 µM) was 44.6% and the viability, T/C (second compound 3.16 µM, first compound 1 µM) was 30.9%. For the same compound, the viability, T/C (second compound 10 µM, first compound 0.00316 µM) was 76.1%, the viability, T/C (second compound 10 µM, first compound 0.01 µM) was 58.5% and the viability, T/C (second compound 10 µM, first compound 0.0316 µM) was 51.9%. The viability, T/C (second compound 10 µM, first compound 0.1 µM) was 35.5%, the viability, T/C (second compound 10 µM, first compound 0.316 µM) was 39.3% and the viability, T/C (second compound 10 µM, first compound 1 µM) was 23.9%.
`Cc1nc(N2CCC3(CC2)COC(C)C3N)c(CO)nc1Sc1ccnc(N)c1Cl` (stereo unspecified) was tested, and the viability, T/C (compound 0.0316 µM) was 105% (2×) and 103% and 97.3%, the viability, T/C (compound 0.1 µM) was 103% (2×) and 106% and 97.7% and the viability, T/C (compound 0.316 µM) was 109% [middle of 4 runs]. The viability, T/C (compound 1 µM) was 108% [middle of 4 runs], the viability, T/C (compound 3.16 µM) was 86.9% [middle of 4 runs] and the viability, T/C (compound 10 µM) was 85.4% [middle of 4 runs]. For the same compound, the IC50 (curve of compound) was over 10000 nM.
